Experimental data from patent US10327423B2, “Antimicrobial compounds and compositions, and uses thereof” (Akeso Biomedical, Inc., priority 2014, dated 2019).
Entries after “also recorded” stand apart in the source; their conditions may differ.

Tests used:
Campylobacter = Campylobacter carriage in chickens (cfu/g of droppings and caeca samples); assay type: in vivo; conditions: days 0-42, dirty litter challenge
Procedure: A study was performed to evaluate growth promotion and reduction of Campylobacter carriage using FeQ and FeTyr in Ross 308 male broilers with 7 treatment groups. Each treatment group comprised four replicates of 10 birds per pen (40 birds/treatment group and 4 pens of 10 birds/treatment group), and there were 2 control groups and 5 test groups. All the test groups and one of the control groups were exposed at day 20 of the trial to dirty litter, which tested positive for Campylobacter. This method was used to provide a more natural method to Campylobacter challenge the birds. Thus there was a positive control where one treatment group was challenged with Campylobacter and one negative control group where the birds were not challenged, and five treatment groups that were all challenged with Campylobacter. The total number of birds used in the 7 treatment groups was 280. Treatment group 1 was a negative control where birds just received the commercial feed, and were not challenged with dirty litter containing Campylobacter. Treatment group 2 was the positive control where the birds received the commercial feed, and were challenged with dirty litter containing Campylobacter at day 20. Treatment group 3 received 0.22 g/L of FeQ in their drinking water and 0.22 g/Kg FeQ in their feed during the entire trial, and was challenged with dirty litter containing Campylobacter at day 20. Treatment group 5 received 0.22 g/L of FeQ in their drinking water during the entire trial, and was challenged with dirty litter containing Campylobacter at day 20. Treatment group 6 received 0.22 g/kg FeQ in their feed during the entire trial, and was challenged with dirty litter containing Campylobacter at day 20. […]
Prior to challenging the chickens with dirty litter containing Campylobacter at day 20, each pen was tested for Campylobacter using cloacal swabs. […] Samples were analyzed for blood chemistry, including analysis for alkaline phosphatase, aspartate amino transferase, alanine amino transferase, gamma-glutamyl transferase, lactate dehydrogenase, total protein, albumin, globulin, amylase and glucose.

[1] = tested on: Enteropathogenic E. coli (EPEC) strain E2348/69; experiment: Growth curve of antibiotic resistant EPEC with gentamicin and Fe complex; assay type: cell-based, Escherichia coli; conditions: for rate of growth relative to gentamicin alone: gentamicin 1.25 μM and FeQ 10 to 100 μM
Procedure: The impact on the growth curve of antibiotic resistant Enteropathogenic E. coli (EPEC) strain E2348/69 (genotype Wild Type EPEC O17:H6) when grown in the presence of (i) gentamicin (1.25 μM), (ii) Fe-Tyr (100 μM), (iii) gentamicin (1.25 μM) and Fe-Tyr (1.25 μM), and (iv) a control with no gentamicin or Fe-Tyr present was determined.
(§1) The impact on the growth curve of antibiotic resistant Enteropathogenic E. coli (EPEC) strain E2348/69 (genotype Wild Type EPEC O17:H6) when grown in the presence of a fixed concentration of gentamicin (1.25 μM) and an increasing concentration of FeQ versus the strain grown in the presence of only FeQ or only gentamicin, was determined.
as §1, with “FeDOPA” for “FeQ”

[2] = tested on: kanamycin resistant strain of Enteropathogenic E. coli EPEC (E2348/69); experiment: Growth of kanamycin resistant EPEC with Fe-QA and kanamycin (patch on growth plate, growth curve); assay type: cell-based, Escherichia coli
Procedure: A kanamycin resistance gene was introduced into the genome of Enteropathogenic E. coli EPEC, (E2348/69), genotype; Wildtype EPEC-O-17:H6 allowing the kanamycin resistant strain of EPEC to grow in the presence of a patch that has been immersed in kanamycin (at a concentration of 50 μg/mL). The kanamycin resistant strain of EPEC was then immersed in a patch in a solution of Fe-QA.

Pseudomonas aeruginosa = experiment: Planktonic growth rate in RPMI-1640; assay type: cell-based; conditions: Fe-QA 100 μM
Procedure: The growth rate of Uropathogenic E. coli UPEC-536 in RPMI-1640 media over a period of 24 hours was compared to the growth rate of UPEC in RPMI-1640 media, but in the presence of 100 μM Fe-QA. The growth rate of Pseudomonas aeruginosa in RPMI-1640 media was also compared to the growth rate of Pseudomonas aeruginosa in RPMI-1640 media, but in the presence of 100 μM Fe-QA.

[3] = tested on: Campylobacter jejuni NCTC 11168 (wildtype and strain carrying a kanamycin resistance gene); experiment: Patch test on growth plates with Fe-QA and kanamycin; assay type: cell-based
Text: The wildtype C. jejuni grew normally, and was not affected by FeQ. A patch was also immersed in a solution of kanamycin and Fe-QA, and placed on a growth plate of wildtype C. jejuni. The growth of C. jejuni was impacted showing that wildtype C. jejuni is sensitive to the presence of kanamycin.
The patch experiments were repeated with a Campylobacter jejuni NCTC 11168 strain carrying a kanamycin resistance gene wherein patches were immersed in (i) kanamycin only, (ii) Fe-QA only, and (iii) kanamycin and Fe-QA. The growth of the C. jejuni strain carrying the kanamycin resistance gene was not impacted by the patches immersed in (i) kanamycin and (ii) Fe-QA, however, the growth was impacted by the patch that was immersed in both kanamycin and Fe-QA.

## O=C1[O][Fe]23([O]C(=O)[C@]4(C[C@@H](O)[C@H](O)[C@H](O)C4)[O]2)([O]C(=O)[C@]2(C[C@@H](O)[C@H](O)[C@H](O)C2)[O]3)[O][C@@]12C[C@@H](O)[C@H](O)[C@H](O)C2 [FeQ, a complex of quinic acid with Fe III]
Campylobacter; Treatment 7: FeQ 0.022 g/L in drinking water
  Campylobacter colony forming units per gram of bird droppings at day 42: less of an effect than the other treatment groups
Campylobacter; treatment groups 3, 5, 6, 7 (FeQ) and 8 (FeTyr)
  average Campylobacter cfu/g of caeca samples at day 42 versus positive control: lower levels of Campylobacter in their caeca; also recorded: performed better than the positive control
[1]; FeQ alone, 10 μM to 100 μM
  growth rate: did not impact the growth rate
[1]
  rate of growth relative to gentamicin alone: inhibited
[1]; listed as Fe-QA
  rate of growth relative to gentamicin alone: loses its resistance
[2]; kanamycin and Fe-QA
  rate of growth (growth curve) relative to kanamycin alone: inhibited
[2]; medium only containing Fe-QA
  rate of growth (growth curve): most rapid growth
[2]; patch immersed in Fe-QA alone
  bacterial growth on plate around patch: no impact on the growth; also recorded: no significant effect on bacterial growth
[2]; patch immersed in Fe-QA and kanamycin (50 μg/mL)
  bacterial growth on plate around patch: fail to grow
Pseudomonas aeruginosa
  planktonic growth rate: does not inhibit the growth
[3]; strain carrying kanamycin resistance gene, patch with Fe-QA only
  growth on plate around patch: not impacted
[3]; strain carrying kanamycin resistance gene, patch with kanamycin and Fe-QA
  growth on plate around patch: retarded; also recorded: impacted
[3]; wildtype C. jejuni (no kanamycin resistance gene), patch with Fe-QA alone
  growth on plate around patch: not affected
[3]; wildtype C. jejuni, patch with kanamycin and Fe-QA
  growth on plate around patch: impacted
